ChEMBL document CHEMBL1201862, “PubChem BioAssay data set” (2004)
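Five compound concentrations were applied to cells in 96-well plates for 48 hours; endpoints were derived by simple linear interpolation of the resulting dose-response curve. GI50 marks 50% less growth.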 Calls of active or inactive are those of the source. Cut-off read from the data, not from the text of the source: active = GI50 up to about 1.1 µM and inactive = higher.

What was measured:
Test in all cases: inhibition of tumour cell growth, NCI panel, 48 h
[1] = test system: ACHN
[2] = test system: BT-549
[3] = test system: CAKI-1
[4] = test system: EKVX
[5] = test system: HL-60
[6] = test system: Hs-578T
[7] = test system: IGROV-1
[8] = test system: M14
[9] = test system: MDA-MB-435
[10] = test system: MDA-N
[11] = test system: MOLT-4
[12] = test system: NCI-H226
[13] = test system: OVCAR-8
[14] = test system: RPMI-8226
[15] = test system: SR
[16] = test system: SW-620
[17] = test system: TK-10
[18] = test system: UACC-257
[19] = test system: UACC-62
[20] = test system: UO-31

SMILES | GI50 [1] | GI50 [2] | GI50 [3] | GI50 [4] | GI50 [5] | GI50 [6] | GI50 [7] | GI50 [8] | GI50 [9] | GI50 [10] | GI50 [11] | GI50 [12] | GI50 [13] | GI50 [14] | GI50 [15] | GI50 [16] | GI50 [17] | GI50 [18] | GI50 [19] | GI50 [20]
COc1cccc(C2c3cc4c(cc3OC(NNC(N)=O)C2C)OCO4)c1O (stereo not given) | 3.47 µM (inactive) | 33 µM (inactive) | 3.11 µM (inactive) | 8.26 µM (inactive) | 1.05 µM (active) | 0.741 µM (active) | 2.58 µM (inactive) | 0.513 µM (active) | 0.216 µM (active) | 0.213 µM (active) | 1.42 µM (inactive) | 2 µM (inactive) | 2.46 µM (inactive) | 2.32 µM (inactive) | 1.64 µM (inactive) | 0.569 µM (active) | 9.18 µM (inactive) | 3.42 µM (inactive) | 2.54 µM (inactive) | 8.39 µM (inactive)
COc1ccc(O)c(/C=N/NC(=S)N2CCCCC2)c1 | 0.906 µM (active) | 3.77 µM (inactive) | 2.72 µM (inactive) | 4.38 µM (inactive) | 0.131 µM (active) | 31 µM (inactive) | 2.78 µM (inactive) | 0.592 µM (active) | 6.07 µM (inactive) | 7.8 µM (inactive) | 1.3 µM (inactive) | 1.07 µM (active) | 1.86 µM (inactive) | 1.05 µM (active) | 0.425 µM (active) | 2.88 µM (inactive) | 3.61 µM (inactive) | 6.04 µM (inactive) | 2.54 µM (inactive) | 0.746 µM (active)
CC12NC(=C(C#N)C#N)C(C#N)=C3NC(N)=C(C#N)C(=C31)Oc1ccccc12 (stereo not given) | > 25 µM (inactive) | > 24.8 µM (inactive) | > 29.4 µM (inactive) | > 66.5 µM (inactive) | 5.74 µM (inactive) | 6.46 µM (inactive) | 4.01 µM (inactive) | > 44.4 µM (inactive) | > 30.1 µM (inactive) | 14.6 µM (inactive) | 15.2 µM (inactive) | 43.6 µM (inactive) | 10.9 µM (inactive) | > 32.7 µM (inactive) | 2.59 µM (inactive) | > 26.6 µM (inactive) | > 31 µM (inactive) | > 100 µM (inactive) | 15 µM (inactive) | > 100 µM (inactive)
CCCCCCC(=O)O[C@H]1CC[C@H]2[C@@H]3CCC4C/C(=N/NC(=O)c5cccc6c(=O)c7ccccc7[nH]c56)C=C(C)[C@]4(C)[C@H]3CC[C@]12C (stereo not given in full) | > 25 µM (inactive) | > 25 µM (inactive) | > 25 µM (inactive) | > 25 µM (inactive) | > 25 µM (inactive) | > 25 µM (inactive) | > 25 µM (inactive) | > 25 µM (inactive) | > 25 µM (inactive) | > 25 µM (inactive) | > 25 µM (inactive) | > 25 µM (inactive) | > 25 µM (inactive) | > 25 µM (inactive) | > 25 µM (inactive) | > 25 µM (inactive) | > 25 µM (inactive) | > 25 µM (inactive) | > 25 µM (inactive) | 19.6 µM (inactive)
CC(NNC(=O)c1ccncc1)c1ccccc1 (stereo not given) | > 100 µM (inactive) | > 100 µM (inactive) | > 100 µM (inactive) | > 100 µM (inactive) | > 100 µM (inactive) | > 100 µM (inactive) | > 100 µM (inactive) | > 100 µM (inactive) | > 100 µM (inactive) | > 100 µM (inactive) | > 100 µM (inactive) | > 100 µM (inactive) | > 100 µM (inactive) | > 100 µM (inactive) | > 100 µM (inactive) | > 100 µM (inactive) | > 100 µM (inactive) | > 100 µM (inactive) | > 100 µM (inactive) | > 100 µM (inactive)
Cc1c2c(n3c(nc4ccccc43)c1C#N)SCC2 | > 10 µM (inactive) | > 10 µM (inactive) | > 10 µM (inactive) | > 10 µM (inactive) | > 10 µM (inactive) | > 10 µM (inactive) | > 10 µM (inactive) | > 10 µM (inactive) | > 10 µM (inactive) | > 10 µM (inactive) | > 10 µM (inactive) | > 10 µM (inactive) | > 10 µM (inactive) | > 10 µM (inactive) | > 10 µM (inactive) | > 10 µM (inactive) | > 10 µM (inactive) | > 10 µM (inactive) | > 10 µM (inactive) | > 10 µM (inactive)
CC(C)OP(=O)(OC(C)C)C(C(C)C)N(C)/C(N)=N/C#N (stereo not given) | > 100 µM (inactive) | > 100 µM (inactive) | > 100 µM (inactive) | > 100 µM (inactive) | > 100 µM (inactive) | > 100 µM (inactive) | > 100 µM (inactive) | > 100 µM (inactive) | > 100 µM (inactive) | > 100 µM (inactive) | > 100 µM (inactive) | > 100 µM (inactive) | > 100 µM (inactive) | > 100 µM (inactive) | > 100 µM (inactive) | > 100 µM (inactive) | > 100 µM (inactive) | > 100 µM (inactive) | > 100 µM (inactive) | > 100 µM (inactive)
Cc1cc(O)nc(NN2C(Cl)C(=O)C2c2ccc(Cl)cc2)n1 (stereo not given) | 23 µM (inactive) | 20.5 µM (inactive) | 15.7 µM (inactive) | 16.6 µM (inactive) | 3.18 µM (inactive) | 30 µM (inactive) | 3.61 µM (inactive) | 13.4 µM (inactive) | 23.4 µM (inactive) | 8.53 µM (inactive) | 6.65 µM (inactive) | 11.9 µM (inactive) | 19.1 µM (inactive) | 8.55 µM (inactive) | 1.27 µM (inactive) | 22.5 µM (inactive) | 19.8 µM (inactive) | 21.6 µM (inactive) | 16.7 µM (inactive) | 25.6 µM (inactive)
C=C1C[C@]23CC[C@@H]4C(CO)(CO)CC(=O)C[C@]4(C)[C@@H]2CC[C@H]1C3 | > 100 µM (inactive) | > 100 µM (inactive) | > 100 µM (inactive) | > 100 µM (inactive) | > 100 µM (inactive) | > 100 µM (inactive) | 57.9 µM (inactive) | > 100 µM (inactive) | > 100 µM (inactive) | > 100 µM (inactive) | > 100 µM (inactive) | 93.8 µM (inactive) | > 100 µM (inactive) | > 100 µM (inactive) | > 100 µM (inactive) | > 100 µM (inactive) | > 100 µM (inactive) | > 100 µM (inactive) | > 100 µM (inactive) | 78.5 µM (inactive)
C=C1c2nc3ccccc3n2C=C(c2ccc(OC)cc2)N1c1ccc(OCCN2CCOCC2)cc1 | 46.9 µM (inactive) | 49.2 µM (inactive) | 90.6 µM (inactive) | > 100 µM (inactive) | 4.31 µM (inactive) | 4.7 µM (inactive) | > 100 µM (inactive) | 9.73 µM (inactive) | 24.3 µM (inactive) | > 75.2 µM (inactive) | 3.75 µM (inactive) | > 100 µM (inactive) | 6.03 µM (inactive) | 1.91 µM (inactive) | 4.41 µM (inactive) | 44.3 µM (inactive) | 18.1 µM (inactive) | 7.13 µM (inactive) | 20.4 µM (inactive) | 24.7 µM (inactive)
C=CCOc1ccc(N)c([N+](=O)[O-])c1 | > 100 µM (inactive) | > 100 µM (inactive) | > 100 µM (inactive) | > 100 µM (inactive) | > 100 µM (inactive) | > 100 µM (inactive) | > 100 µM (inactive) | > 100 µM (inactive) | > 100 µM (inactive) | > 100 µM (inactive) | > 100 µM (inactive) | > 100 µM (inactive) | > 100 µM (inactive) | > 100 µM (inactive) | > 100 µM (inactive) | > 100 µM (inactive) | > 100 µM (inactive) | > 100 µM (inactive) | > 100 µM (inactive) | 94.4 µM (inactive)
